Consider three compounds from publication PMC3059997, “Exploring Indirect Sources of Human Exposure to Perfluoroalkyl Carboxylates (PFCAs): Evaluating Uptake, Elimination, and Biotransformation of Polyfluoroalkyl Phosphate Esters (PAPs) in the Rat” (Environmental Health Perspectives, 2010).

A short description of data set [1]: Uptake experiment: diPAP mixture by oral gavage, analytes in whole blood. The class given is in vivo, Sprague-Dawley rats. Conditions: diPAP gavage dose, whole blood; for Cmax / Half-life: mean ± SE; for Cmax: values in parentheses < LOQ but > LOD; for Half-life: about 50 mg/kg each. The procedure: (§1) This research was conducted under an animal use protocol approved by the University of Toronto Animal Care Committee. All animals were treated humanely and with regard for alleviation of suffering. Sprague-Dawley rats were obtained from Charles River Laboratories Inc. (Sherbrooke, QC, Canada) The animals were singly housed and exposed to a 12/12 hr light/dark cycle with food and water available ad libitum. Blood samples were collected from the saphenous vein using Microvette CB 300 vials (Sarstedt AG & Co., Montreal, QC, Canada) embedded with lithium-heparin as an anticoagulant. Whole-blood samples were stored at −20°C, and urine and feces samples were stored at 4°C.
(§2) Two groups of four 8-week-old male rats were administered a mixture of 4:2, 6:2, 8:2, and 10:2 diPAP or monoPAP, respectively, each at about 50 mg/kg, at 4 mL/kg by oral gavage without prior fasting. […] Two control male rats were administered clean vehicle at 4 mL/kg [for details, see Supplemental Material, Table 3 (doi:10.1289/ehp.1002409)].
(§3) Blood was collected from all animals 3 days before dosing to establish background contamination. For the uptake experiment, blood samples were collected at 1, 3, and 6 hr and 1, 2, 4, 7, 10, 14, 18, and 22 days after dosing. For the elimination experiment, blood samples were collected at 2, 4, and 6 hr and 1, 2, 4, 8, 11, 15, and 18 days after dosing. On the final sampling day, the animals were sacrificed by carbon dioxide asphyxiation, and about 10 mL of blood was collected by cardiac puncture into a BD Vacutainer embedded with lithium-heparin.
(§4) The compounds of interest fall into four categories: a) the diPAP and monoPAP parent compounds, b) the saturated and unsaturated fluorotelomer carboxylic acid (FTCA and FTUCA) metabolic intermediates, c) the FTOH-sulfate and FTOH-glucuronide phase II metabolites, and d) the final PFCA biotransformation products [see Supplemental Material, Table 1 (doi:10.1289/ehp.1002409)]. We analyzed these compounds in whole blood, urine, and feces samples. For full analytical details, see Supplemental Material. All PFCAs, FTCAs, FTUCAs, and phase II metabolites were quantified by internal calibration. Because internal standards were not available, monoPAPs and diPAPs were quantified by standard addition. We performed spike and recovery experments to validate the extraction and quantification techniques used (for details, see Supplemental Material).
(§5) Analyte and matrix specific limits of detection (LODs) and limits of quantification (LOQs) are provided in Supplemental Material (doi:10.1289/ehp.1002409). For the purpose of calculating means, values < LOD were assigned a value of zero, and values < LOQ but > LOD were used unaltered but are indicated by asterisks in figures and parentheses in tables. Values are presented using the arithmetic mean ± SE. Full data sets are available in Supplemental Material. […]

The nature of data set [2]: Elimination experiment: diPAP mixture by IV injection, analytes in whole blood. The class given is in vivo, Sprague-Dawley rats. Conditions: diPAP IV dose, whole blood; for Half-life: about 15 mg/kg each. The procedure: as §1
(§6) Two groups of four 8-week-old male rats were administered a mixture of 4:2, 6:2, 8:2, and 10:2 diPAP or monoPAP, respectively, each at about 15 mg/kg, at 2 mL/kg by intravenous (IV) injection into the lateral tail vein. The dosing vehicle was 50:50 propylene glycol:water. Two control male rats were administered clean vehicle at 2 mL/kg [for details see Supplemental Material, Table 3 (doi:10.1289/ehp.1002409)].
as §3, §4, §5

Data set [3] is described as follows: Uptake experiment: monoPAP mixture by oral gavage, analytes in whole blood. The class given is in vivo, Sprague-Dawley rats. As to conditions: monoPAP gavage dose; for Tmax / Cmax: whole blood; for Cmax: values in parentheses < LOQ but > LOD. On the procedure:
as §1, §2, §3, §4
(§7) Analyte and matrix specific limits of detection (LODs) and limits of quantification (LOQs) are provided in Supplemental Material (doi:10.1289/ehp.1002409). For the purpose of calculating means, values < LOD were assigned a value of zero, and values < LOQ but > LOD were used unaltered but are indicated by asterisks in figures and parentheses in tables. Values are presented using the arithmetic mean ± SE. Full data sets are available in Supplemental Material.

Data set [4] in a line: Elimination experiment: monoPAP mixture by IV injection, analytes in whole blood. The class given is in vivo, Sprague-Dawley rats. As to conditions: monoPAP IV dose; for Half-life: about 15 mg/kg each, PFCA product in whole blood; for Cmax / Tmax: whole blood. The procedure:
as §1, §6, §3, §4, §7

Details of data set [5]: method as in Chang et al. 2008; Ohmori et al. 2003. Conditions: male rats; ref Chang et al. 2008; Ohmori et al. 2003; cited from earlier work.
Details of data set [6]: method as in Olsen et al. 2007. As to conditions: ref Olsen et al. 2007; cited from earlier work.
The mark [7] stands for this setting: mean ± SE, values in parentheses < LOQ but > LOD.
Setting [8] is: male, Sprague-Dawley, rat, in vivo, po, 50 mg/kg, read-out: Cmax.
The mark [9] stands for this setting: male, Sprague-Dawley, rat, in vivo, po, 50 mg/kg, read-out: Tmax (converted).
The mark [10] stands for this setting: male, Sprague-Dawley, rat, in vivo, 15 mg/kg, read-out: Tmax (converted).

As usually defined, the Cmax is the peak of the concentration-time curve. For `O=C(O)C(F)(F)C(F)(F)C(F)(F)F` [PFBA, perfluorobutanoic acid], the Tmax in data set [1] worked out at 1 day days; in data set [2], 1 day days; in data set [3] it was 1 day days; in data set [4] it was 6 h. Also, the maximum concentration (Cmax) in data set [1] was found to be 3.8 ± 1.0 ng/g; in data set [2] (setting [7]), 20 ± 5 ng/g; in data set [3], 9.7 ± 1.9 ng/g; in data set [4], 7.3 ± 1.3 ng/g. Also, the “Half-life” value in data set [2] (mean ± SE) turned out to be 79.2 ± 28.8 h; in data set [4] it was 12.7 ± 3.6 h. Further, the Serum half-lives result in data set [5] is given as “on the order of hours”.

`O=C(O)C(F)(F)C(F)(F)C(F)(F)C(F)(F)C(F)(F)F` [PFHxA, perfluorohexanoic acid]: the entries for the “Half-life” value in data set [1], in data set [2] (mean ± SE) and in data set [4] were 101 ± 31.2 h, 43.2 ± 12.2 h and 5.52 ± 5.52 h, respectively. Further, the Tmax in data set [1] is 4 h; in data set [2] it was 1 day days; in data set [3], 4 h; in data set [4] it was 4 h. Moreover, the peak concentration (Cmax) amounted to 10 ± 1.2 ng/g in data set [1], 7.4 ± 1.5 ng/g in data set [3] and 5.6 ± 1.3 ng/g in data set [4]. The “Cmax (ng/g)” value in data set [2] (setting [7]) is recorded as “(3.0 ± 1.0) ^d ng/g”. Further, the Serum half-lives entry in data set [5] is on record as “on the order of hours”.

On to `O=C(O)C(F)(F)C(F)(F)C(F)(F)C(F)(F)C(F)(F)C(F)(F)C(F)(F)F` [PFOA, perfluorooctanoic acid], for which the Cmax was determined as 7.2 ± 1.7 ng/g in data set [1] (setting [8]); 9.3 ± 2.4 ng/g in data set [2] (male, Sprague-Dawley, rat, in vivo, 15 mg/kg, mean ± SE, values in parentheses < LOQ but > LOD, read-out: Cmax); 28 ± 8 ng/g in data set [3] (setting [8]); 8.5 ± 1.4 ng/g in data set [4] (male, Sprague-Dawley, rat, in vivo, 15 mg/kg, read-out: Cmax). Moreover, the Tmax in data set [1] (setting [9]) is 96 h; in data set [2] (setting [10]), 48 h; in data set [3] (setting [9]) it was 24 h; in data set [4] (setting [10]) it was 96 h. Also, the Half-life in data set [1] (male, Sprague-Dawley, rat, in vivo, po, read-out: Half-life (converted)) is 264 h; in data set [2] (male, Sprague-Dawley, rat, in vivo, mean ± SE, read-out: Half-life (converted)), 552 h; in data set [3] (male, Sprague-Dawley, rat, in vivo, po, about 50 mg/kg each, PFCA product in whole blood, read-out: Half-life (converted)), 240 h; in data set [4] (male, Sprague-Dawley, rat, in vivo, read-out: Half-life (converted)) it was 288 h. In data set [6], the “Human serum half-life (arithmetic)” value is 4.5 years.
